# Experiments:
# Type in all cases: in vivo
# rice (Oryza sativa) = test: Test B flooded paddy test, rice; conditions: Oryza sativa; 250 g ai/ha, Flood; visually evaluated after 10 to 14 days; read-out: Plant response rating, Rice (0 to 100 scale where 0 is no effect and 100 is complete control)
# Summary of the method: (§1)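 Compound is introduced straight into paddy water on flooded pots (3 cm) containing 2-leaf-stage plants. Controls are run alongside, and all plants are rated by eye on a 0–100 scale after 10 to 14 days under glass.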
# [1] = test system: wheat (Triticum aestivum); test: Test A postemergence, wheat; conditions: Triticum aestivum, post-emergence, 240 h, 10 days, read-out: Plant response rating, Wheat; for plant injury at 31 g/ha: 31 g ai/ha, postemergence, 0 to 100 scale (0 no effect, 100 complete control); for plant injury at 125 g/ha: Postemergence, 125 g ai/ha, 0 to 100 scale
# Summary of the method: (§2)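 Greenhouse pot test in loam/sand; preemergence = directed soil spray after planting, postemergence = foliar spray at 1–2 leaf stage (2–10 cm). Formulation: non-phytotoxic solvent mix plus surfactant. Visual injury vs untreated, 0–100 scale, day 10.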
# kochia (Bassia scoparia) = test: Test A postemergence, kochia; conditions: Bassia scoparia, post-emergence, 240 h, 10 days, read-out: Plant response rating, Kochia; for pest or weed control at 31 g/ha: 31 g ai/ha, postemergence, 0 to 100 scale (0 no effect, 100 complete control); for pest or weed control at 125 g/ha: Postemergence, 125 g ai/ha, 0 to 100 scale
# Summary of the method: as §2
# [2] = test system: barnyardgrass (Echinochloa crus-galli); test: Test B flooded paddy test, barnyardgrass; conditions: Echinochloa crus-galli; 250 g ai/ha, Flood; visually evaluated after 10 to 14 days; read-out: Plant response rating, Barnyardgrass (0 to 100 scale where 0 is no effect and 100 is complete control)
# Summary of the method: as §1
Structure (SMILES),plant injury at 250 g/ha (rice (Oryza sativa)),plant injury at 31 g/ha [1],plant injury at 125 g/ha [1],pest or weed control at 31 g/ha (kochia (Bassia scoparia)),pest or weed control at 125 g/ha (kochia (Bassia scoparia)),pest or weed control at 250 g/ha [2]
"CC(=O)OCOc1c(C)nn(C)c(=O)c1-c1c2cc(C)ccc2cc2ccc(F)cc12 [Compound 24, 5-[(acetyloxy)methoxy]-4-(2-fluoro-7-methyl-9-anthracenyl)-2,6-dimethyl-3(2H)-pyridazinone]",50%,0%,0%,90%,100%,70%
"CC(=O)OCOc1c(Cl)nn(C)c(=O)c1-c1c2ccccc2cc2ccccc12 [Compound 10, 5-[(acetyloxy)methoxy]-4-(9-anthracenyl)-6-chloro-2-methyl-3(2H)-pyridazinone]",0%,0%,0%,0%,10%,15%
"CC(=O)OCOc1c(C)nn(C)c(=O)c1-c1c(Br)sc2ccc(F)cc12 [Compound 2, 5-[(acetyloxy)methoxy]-4-(2-bromo-5-fluorobenzo[b]thien-3-yl)-2,6-dimethyl-3(2H)-pyridazinone]",0%,0%,40%,70%,80%,0%
"CC(=O)OCOc1c(Cl)nn(C)c(=O)c1-c1c(C)ccc2ccc(C)cc12 [Compound 3, 5-[(Acetyloxy)methoxy]-6-chloro-4-(2,7-dimethyl-1-naphthalenyl)-2-methyl-3(2H)-pyridazinone]",0%,0%,20%,60%,80%,98%
